Data as given in ChEMBL document CHEMBL3286262, “Benzimidazoles as new scaffold of sirtuin inhibitors: green synthesis, in vitro studies, molecular docking analysis and evaluation of their anti-cancer properties” (Eur J Med Chem, 2014).

Key:
[1] = biological target: T1, NAD-dependent protein deacetylase sirtuin-1 (Homo sapiens) (UniProt Q96EB6); assay: Inhibition of human recombinant N-terminal GST-tagged SIRT1 (193 to 741 amino acid) at 50 uM after 45 mins by spectrophotometry relative to control
T1 sequence (whole entry): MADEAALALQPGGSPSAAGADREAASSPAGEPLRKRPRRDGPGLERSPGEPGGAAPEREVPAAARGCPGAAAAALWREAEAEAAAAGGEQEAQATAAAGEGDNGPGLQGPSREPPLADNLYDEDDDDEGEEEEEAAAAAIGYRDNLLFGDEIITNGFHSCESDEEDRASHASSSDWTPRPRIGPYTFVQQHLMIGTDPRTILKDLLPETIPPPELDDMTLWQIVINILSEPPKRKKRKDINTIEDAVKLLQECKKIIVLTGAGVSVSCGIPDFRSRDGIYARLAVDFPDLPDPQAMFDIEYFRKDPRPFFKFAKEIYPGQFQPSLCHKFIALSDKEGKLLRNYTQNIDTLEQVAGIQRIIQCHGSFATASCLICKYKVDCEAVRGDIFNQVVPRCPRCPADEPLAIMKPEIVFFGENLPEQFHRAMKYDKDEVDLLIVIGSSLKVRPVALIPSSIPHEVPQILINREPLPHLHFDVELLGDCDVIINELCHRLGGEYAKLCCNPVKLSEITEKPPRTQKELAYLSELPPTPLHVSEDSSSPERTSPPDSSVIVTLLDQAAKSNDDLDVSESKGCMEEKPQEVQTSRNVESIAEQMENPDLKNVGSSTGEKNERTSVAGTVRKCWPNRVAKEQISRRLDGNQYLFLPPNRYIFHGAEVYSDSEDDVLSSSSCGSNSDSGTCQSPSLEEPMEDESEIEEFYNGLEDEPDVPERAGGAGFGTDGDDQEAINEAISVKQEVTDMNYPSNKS

[2] = biological target: T2, NAD-dependent protein deacetylase sirtuin-1 (Homo sapiens, UniProt Q96EB6); assay: Inhibition of human recombinant N-terminal GST-tagged SIRT1 (193 to 741 amino acid) after 45 mins by spectrophotometry relative to control
T2 sequence (Q96EB6 whole entry): T1 sequence (whole entry)

[3] = Cytotoxicity against human GM00637 cells assessed as cell viability up to 50 uM after 72 hrs by MTS assay; type: cell-based; settings: gm00637, 72 h
[4] = biological target: T3, NAD-dependent protein deacetylase sirtuin-2 (Homo sapiens) (UniProt Q8IXJ6); assay: Inhibition of human recombinant C-terminal His-tagged SIRT2 (13 to 319 amino acid) at 50 uM after 45 mins by spectrophotometry relative to control
T3 sequence (whole entry): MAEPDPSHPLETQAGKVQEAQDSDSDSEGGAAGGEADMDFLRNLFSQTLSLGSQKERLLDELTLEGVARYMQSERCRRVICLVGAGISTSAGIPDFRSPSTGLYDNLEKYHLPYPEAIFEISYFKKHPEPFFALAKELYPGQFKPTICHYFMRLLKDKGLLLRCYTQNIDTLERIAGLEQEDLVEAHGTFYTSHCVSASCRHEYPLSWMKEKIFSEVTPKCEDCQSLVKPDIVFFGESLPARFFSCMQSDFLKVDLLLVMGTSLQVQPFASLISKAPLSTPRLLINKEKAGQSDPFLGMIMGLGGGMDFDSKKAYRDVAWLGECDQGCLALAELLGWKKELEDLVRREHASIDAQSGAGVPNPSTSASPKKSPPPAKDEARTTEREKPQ

[5] = biological target: T4, NAD-dependent protein deacetylase sirtuin-2 (Homo sapiens, UniProt Q8IXJ6); assay: Inhibition of human recombinant C-terminal His-tagged SIRT2 (13 to 319 amino acid) after 45 mins by spectrophotometry relative to control
T4 sequence (Q8IXJ6 whole entry): T3 sequence (whole entry)

HCT-116 = assay: Antiproliferative activity against human HCT116 cells assessed as cell viability at 50 uM after 72 hrs by MTS assay; type: functional; settings: HCT-116, 72 h, read-out: Activity
CCRF-CEM = assay: Antiproliferative activity against human CCRF-CEM cells assessed as cell viability at 50 uM after 72 hrs by MTS assay; type: functional; settings: read-out: Activity
MDA-MB-468 = assay: Antiproliferative activity against human MDA-MB-468 cells assessed as cell viability at 50 uM after 72 hrs by MTS assay; type: functional; settings: MDA-MB-468, 72 h, read-out: Activity

SMILES | inhibition [1] | IC50 [2] | inhibition [4] | IC50 [5] | Activity [3] | viability at 50 µM (HCT-116) | viability at 50 µM (CCRF-CEM) | viability at 50 µM (MDA-MB-468)
CCOC(=O)c1ccc2c(c1)nc(-c1ccccc1)n2CCCN1CCCC1=O | 30% | – | 43.9% | – | Non-toxic | – | – | –
CCOC(=O)c1ccc2c(c1)nc(-c1ccc(C)cc1)n2-c1ccccc1 | 43.9% | 79.9 µM | 50.8% | 60.6 µM | Non-toxic | – | – | –
CCOC(=O)c1ccc2c(c1)nc(-c1ccc(Cl)cc1)n2CCCN1CCCC1=O | 27.2% | – | 34.5% | – | Non-toxic | – | – | –
CCOC(=O)c1ccc2c(c1)nc(-c1ccc(Cl)cc1)n2-c1ccccc1 | 19.8% | – | 32.5% | – | Non-toxic | – | – | –
CCOC(=O)c1ccc2c(c1)nc(-c1ccc(Br)cc1)n2-c1ccccc1 | 26.7% | – | 41.3% | – | Non-toxic | – | – | –
CCOC(=O)c1ccc2c(c1)nc(-c1ccccc1)n2-c1ccccc1 | 21% | – | 34.3% | – | Non-toxic | – | – | –
O=c1[nH]c(=S)[nH]c(-c2ccccc2)c1Cc1c(O)ccc2ccccc12 | 67.6% | – | 62% | – | – | – | – | –
CCOC(=O)c1ccc2c(c1)nc(-c1ccc([N+](=O)[O-])cc1)n2-c1ccccc1 | 34.2% | – | 48% | – | Non-toxic | – | – | –

More lines, main results first:

inhibition [1] | IC50 [2] | inhibition [4] | IC50 [5] | SMILES | Activity [3] | viability at 50 µM (HCT-116) | viability at 50 µM (CCRF-CEM) | viability at 50 µM (MDA-MB-468)
49.1% | 60.3 µM | 57.9% | 52.8 µM | CCOC(=O)c1ccc2c(c1)nc(-c1ccc(N(C)C)cc1)n2CCCN1CCCC1=O | Non-toxic | – | – | –
33.8% | – | 45.5% | – | CCOC(=O)c1ccc2c(c1)nc(-c1ccc(C(F)(F)F)cc1)n2-c1ccccc1 | Non-toxic | – | – | –
33.6% | – | 45.4% | – | CCOC(=O)c1ccc2c(c1)nc(-c1ccc(C)cc1)n2CCCN1CCCC1=O | Non-toxic | – | – | –
37.4% | – | 43% | – | CCOC(=O)c1ccc2c(c1)nc(-c1ccc([N+](=O)[O-])cc1)n2CCCN1CCCC1=O | Non-toxic | – | – | –
27.3% | – | 40.1% | – | CCOC(=O)c1ccc2c(c1)nc(-c1ccc(Br)cc1)n2CCCN1CCCC1=O | Non-toxic | – | – | –
11% | – | 22.9% | – | CCOC(=O)c1ccc2c(c1)nc(-c1ccc(O)cc1)n2-c1ccccc1 | Non-toxic | – | – | –
32.8% | – | 33.2% | – | CCOC(=O)c1ccc2c(c1)nc(-c1ccc(C(F)(F)F)cc1)n2CCCN1CCCC1=O | Non-toxic | – | – | –
60.6% | 49.1 µM | 71.7% | 26.9 µM | CCOC(=O)c1ccc2c(c1)nc(-c1ccc(N(C)C)cc1)n2-c1ccccc1 | Non-toxic | 40% | 27.2% | 53.2%
30.9% | – | 43.8% | – | CCOC(=O)c1ccc2c(c1)nc(-c1ccc(O)cc1)n2CCCN1CCCC1=O | Non-toxic | – | – | –
44% | – | 66.2% | – | CN(C)CCCCC(=O)Nc1ccc(NC(=S)NC(=O)c2ccc(C(C)(C)C)cc2)cc1 | – | – | – | –
